# Assay results reported in PubChem BioAssay (NCI).
#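 These data come from cells grown in 96-well plates and exposed to compound for 48 hours at five concentrations. Definition used: TGI = concentration required for complete inhibition of growth.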
# Experiments:
# Test in all cases: DTP human tumour cell line panel, 48 h
# A498 renal = system: A498 renal
# A549 NSCLC = system: A549 NSCLC
# CAKI-1 renal = system: CAKI-1 renal
# EKVX NSCLC = system: EKVX NSCLC
# HCT-15 colon = system: HCT-15 colon
# HOP-62 NSCLC = system: HOP-62 NSCLC
# HOP-92 NSCLC = system: HOP-92 NSCLC
# HT29 colon = system: HT29 colon
# K-562 leukemia = system: K-562 leukemia
# MDA-MB-231 breast = system: MDA-MB-231 breast
# NCI-H226 lung = system: NCI-H226 lung
# NCI-H23 lung = system: NCI-H23 lung
# NCI-H460 lung = system: NCI-H460 lung
# PC-3 prostate = system: PC-3 prostate
# SNB-19 CNS = system: SNB-19 CNS
# SNB-75 CNS = system: SNB-75 CNS
# SW-620 colon = system: SW-620 colon
# TK-10 renal = system: TK-10 renal
# UO-31 renal = system: UO-31 renal
# LOX IMVI melanoma = system: LOX IMVI melanoma
SMILES,TGI (A498 renal) [µM],TGI (A549 NSCLC) [µM],TGI (CAKI-1 renal) [µM],TGI (EKVX NSCLC) [µM],TGI (HCT-15 colon) [µM],TGI (HOP-62 NSCLC) [µM],TGI (HOP-92 NSCLC) [µM],TGI (HT29 colon) [µM],TGI (K-562 leukemia) [µM],TGI (MDA-MB-231 breast) [µM],TGI (NCI-H226 lung) [µM],TGI (NCI-H23 lung) [µM],TGI (NCI-H460 lung) [µM],TGI (PC-3 prostate) [µM],TGI (SNB-19 CNS) [µM],TGI (SNB-75 CNS) [µM],TGI (SW-620 colon) [µM],TGI (TK-10 renal) [µM],TGI (UO-31 renal) [µM],TGI (LOX IMVI melanoma) [µM]
CCOP(=O)(OCC)/C(C#N)=C/c1cn(C)cn1,> 100,> 100,> 100,> 100,> 100,> 100,> 100,> 100,> 100,> 100,> 100,> 100,> 100,> 100,> 100,> 100,> 100,> 100,> 100,
Cc1ccc(N=N/C(=N\NC(=O)c2ccc(C)cc2)c2ccc(N(CCC#N)CCC#N)cc2C)cc1,> 100,> 100,> 100,> 100,> 100,> 100,> 100,> 100,> 100,> 100,> 100,> 100,> 100,> 100,> 100,> 100,> 100,> 100,> 100,> 100
CC1=Nc2nc(Cl)cn2C(=O)C1(Cl)Cl,> 10,> 10,> 10,> 10,> 10,> 10,,> 10,> 10,> 10,> 10,> 10,> 10,> 10,> 10,> 10,> 10,> 10,> 10,> 10
C[Si](C)(OCCS(=O)(=O)O)C1(Cc2cccc3ccccc23)S(=O)(=O)OCCOS1(=O)=O,30.8,65.2,31.4,32.3,52.1,45,50.7,,> 100,43.3,45.8,96,41.1,45.4,42.9,55.1,33.7,50.9,32.4,34
